# Results published in article PMC6602303, “Yeast ceramide synthases, Lag1 and Lac1, have distinct substrate specificity” (Journal of Cell Science, 2019).
# Experiments:
# [1] = target: T1, Lac1 (Saccharomyces cerevisiae, UniProt P28496); experiment: in vitro CerS assay, TLC fluorescence of NBD-ceramide; format: cell-free; details: labelled compound; 50 μM C26-CoA, 5 μM human ACBP1, 20 μM defatted BSA, 2 mM MgCl2, pH 7.2, 37°C; Δlag1Δsur2 lysate; read-out: apparent Km
# T1 construct: native full-length protein in cryo-milled lysate of Δlag1Δsur2 yeast; with Ceramide synthase subunit LIP1
# T1 sequence (P28496 2-418): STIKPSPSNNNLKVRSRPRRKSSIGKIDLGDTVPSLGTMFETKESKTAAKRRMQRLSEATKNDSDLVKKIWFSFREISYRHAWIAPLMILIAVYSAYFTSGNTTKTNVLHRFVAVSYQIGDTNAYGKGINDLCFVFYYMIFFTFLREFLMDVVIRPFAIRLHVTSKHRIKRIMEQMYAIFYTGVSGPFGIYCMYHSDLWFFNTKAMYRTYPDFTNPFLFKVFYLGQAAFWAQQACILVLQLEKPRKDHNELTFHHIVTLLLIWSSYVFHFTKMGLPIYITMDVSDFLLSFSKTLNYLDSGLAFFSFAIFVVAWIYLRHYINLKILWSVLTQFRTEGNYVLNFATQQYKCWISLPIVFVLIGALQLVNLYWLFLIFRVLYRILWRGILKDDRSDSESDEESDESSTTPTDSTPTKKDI
# T1 sequence (Q03579 1-150 partner): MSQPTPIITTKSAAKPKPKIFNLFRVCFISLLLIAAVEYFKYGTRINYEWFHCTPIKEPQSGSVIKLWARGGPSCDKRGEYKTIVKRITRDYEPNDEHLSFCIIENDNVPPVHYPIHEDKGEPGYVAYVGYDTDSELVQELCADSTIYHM
# Excerpt: in vitro CerS assay, TLC fluorescence of NBD-ceramide on Lac1 | Lag1 (Δlac1Δsur2) has a higher affinity towards PHS than Lac1 (Δlag1Δsur2) | We next determined the Km of Lag1 or Lac1 towards DHS and PHS
# [2] = target: T2, Lag1 (Saccharomyces cerevisiae, UniProt P38703); experiment: as above; format: cell-free (lysate); details: labelled compound; 50 μM C26-CoA, 5 μM human ACBP1, 20 μM defatted BSA, 2 mM MgCl2, pH 7.2, 37°C; Δlac1Δsur2 lysate; read-out: apparent Km
# T2 construct: native full-length protein in cryo-milled lysate of Δlac1Δsur2 yeast; with Ceramide synthase subunit LIP1
# T2 sequence (P38703 1-411): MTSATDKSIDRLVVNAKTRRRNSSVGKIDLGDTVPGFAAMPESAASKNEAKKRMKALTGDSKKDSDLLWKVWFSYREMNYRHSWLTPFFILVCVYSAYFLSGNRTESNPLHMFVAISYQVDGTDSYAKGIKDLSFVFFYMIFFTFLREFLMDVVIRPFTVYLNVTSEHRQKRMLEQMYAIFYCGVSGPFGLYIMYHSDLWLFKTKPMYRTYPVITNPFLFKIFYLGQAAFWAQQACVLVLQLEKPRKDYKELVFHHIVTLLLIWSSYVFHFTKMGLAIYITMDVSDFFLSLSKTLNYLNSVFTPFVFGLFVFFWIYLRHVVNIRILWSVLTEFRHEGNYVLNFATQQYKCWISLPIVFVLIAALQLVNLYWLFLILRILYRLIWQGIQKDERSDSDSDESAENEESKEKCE
# T2 sequence (Q03579 1-150 partner): T1 sequence (Q03579 1-150 partner)
# Excerpt: in vitro CerS assay, TLC fluorescence of NBD-ceramide on Lag1 | Lag1 (Δlac1Δsur2) has a higher affinity towards PHS than Lac1 (Δlag1Δsur2) | We next determined the Km of Lag1 or Lac1 towards DHS and PHS
Substance,Km [1],Km [2]
NBD–PHS,128 ± 52.5 µM,30.5 ± 6.6 µM
NBD–DHS,165 ± 56 µM,132 ± 29 µM
